{"source": "ChEMBL document CHEMBL4270560", "about": "“Novel curcumin analogue hybrids: Synthesis and anticancer activity” (Eur J Med Chem, 2018)", "key": {"[1]": {"target": "Thioredoxin reductase (Homo sapiens) (UniProt Q16881+Q9NNW7+Q86VQ6)", "test": "Inhibition of TrxR in human SGC7901 cells assessed as p38 phosphorylation at 600 to 1200 nM after 48 hrs by Western blot analysis", "assay_type": "cell-based"}, "SGC-7901 [2]": {"system": "SGC-7901", "test": "Cell cycle arrest in human SGC7901 cells assessed as accumulation at S phase at 1200 nM after 48 hrs by propidium iodide staining based flow cytometric analysis (reference value: 33.30%)", "assay_type": "functional"}, "SGC-7901 [3]": {"system": "SGC-7901", "test": "Induction of apoptosis in human SGC7901 cells assessed as viable cells at 800 nM after 48 hrs by Annexin V-FITC/propidium iodide staining based flow cytometric analysis (reference value: 95.9%)", "assay_type": "functional", "settings": "SGC-7901, 48 h, read-out: Activity"}, "SGC-7901 [4]": {"system": "SGC-7901", "test": "Induction of mitochondrial membrane depolarization in human SGC7901 cells assessed as cells with mitochondrial membrane potential loss at 1000 nM after 48 hrs in presence of NAC by JC-1 staining based flow cytometric analysis (reference value: 1.65%)", "assay_type": "functional"}, "SGC-7901 [5]": {"system": "SGC-7901", "test": "Cell cycle arrest in human SGC7901 cells assessed as accumulation at G1 phase at 800 nM after 48 hrs by propidium iodide staining based flow cytometric analysis (reference value: 47.93%)", "assay_type": "functional"}, "SGC-7901 [6]": {"system": "SGC-7901", "test": "Induction of mitochondrial membrane depolarization in human SGC7901 cells assessed as cells with intact mitochondrial membrane potential at 1200 nM after 48 hrs in presence of NAC by JC-1 staining based flow cytometric analysis (reference value: 98%)", "assay_type": "functional"}, "SGC-7901 [7]": {"system": "SGC-7901", "test": "Induction of apoptosis in human SGC7901 cells assessed as early apoptotic cells at 1200 nM after 48 hrs in presence of NAC by Annexin V-FITC/propidium iodide staining based flow cytometric analysis (reference value: 0.851%)", "assay_type": "functional"}, "SGC-7901 [8]": {"system": "SGC-7901", "test": "Induction of mitochondrial membrane depolarization in human SGC7901 cells assessed as cells with intact mitochondrial membrane potential at 800 nM after 48 hrs by JC-1 staining based flow cytometric analysis (reference value: 87.3%)", "assay_type": "functional"}, "SGC-7901 [9]": {"system": "SGC-7901", "test": "Induction of apoptosis in human SGC7901 cells assessed as viable cells at 600 nM after 48 hrs by Annexin V-FITC/propidium iodide staining based flow cytometric analysis (reference value: 95.9%)", "assay_type": "functional", "settings": "SGC-7901, 48 h, read-out: Activity"}, "SGC-7901 [10]": {"system": "SGC-7901", "test": "Induction of apoptosis in human SGC7901 cells assessed as early apoptotic cells at 600 nM after 48 hrs by Annexin V-FITC/propidium iodide staining based flow cytometric analysis (reference value: 2.30%)", "assay_type": "functional"}, "SGC-7901 [11]": {"system": "SGC-7901", "test": "Induction of apoptosis in human SGC7901 cells assessed as late apoptotic cells at 1000 nM after 48 hrs by Annexin V-FITC/propidium iodide staining based flow cytometric analysis (reference value: 1.73 to 2.85%)", "assay_type": "functional"}, "SGC-7901 [12]": {"system": "SGC-7901", "test": "Induction of mitochondrial membrane potential loss in human SGC7901 cells after 48 hrs by JC-1 staining based flow cytometric analysis", "assay_type": "functional, cell-based"}, "SGC-7901 [13]": {"system": "SGC-7901", "test": "Induction of mitochondrial membrane depolarization in human SGC7901 cells assessed as cells with intact mitochondrial membrane potential at 1200 nM after 48 hrs by JC-1 staining based flow cytometric analysis (reference value: 87.3 to 98%)", "assay_type": "functional"}, "SGC-7901 [14]": {"system": "SGC-7901", "test": "Induction of apoptosis in human SGC7901 cells assessed as early apoptotic cells at 800 nM after 48 hrs by Annexin V-FITC/propidium iodide staining based flow cytometric analysis (reference value: 2.30%)", "assay_type": "functional"}, "SGC-7901 [15]": {"system": "SGC-7901", "test": "Induction of apoptosis in human SGC7901 cells assessed as late apoptotic cells at 1000 nM after 48 hrs in presence of NAC by Annexin V-FITC/propidium iodide staining based flow cytometric analysis (reference value: 2.85%)", "assay_type": "functional"}, "SGC-7901 [16]": {"system": "SGC-7901", "test": "Induction of apoptosis in human SGC7901 cells assessed as necrotic cells at 1000 nM after 48 hrs in presence of NAC by Annexin V-FITC/propidium iodide staining based flow cytometric analysis (reference value: 0.304%)", "assay_type": "functional"}, "SGC-7901 [17]": {"system": "SGC-7901", "test": "Cell cycle arrest in human SGC7901 cells assessed as accumulation at S phase at 800 nM after 48 hrs by propidium iodide staining based flow cytometric analysis (reference value: 33.30%)", "assay_type": "functional"}, "SGC-7901 [18]": {"system": "SGC-7901", "test": "Induction of apoptosis in human SGC7901 cells assessed as increase in Bax to Bcl-2 ratio level at 600 to 1200 nM after 48 hrs by Western blot analysis", "assay_type": "functional, cell-based"}, "SGC-7901 [19]": {"system": "SGC-7901", "test": "Induction of apoptosis in human SGC7901 cells assessed as necrotic cells at 800 nM after 48 hrs by Annexin V-FITC/propidium iodide staining based flow cytometric analysis (reference value: 0.052%)", "assay_type": "functional"}, "SGC-7901 [20]": {"system": "SGC-7901", "test": "Induction of apoptosis in human SGC7901 cells assessed as viable cells at 1200 nM after 48 hrs by Annexin V-FITC/propidium iodide staining based flow cytometric analysis (reference value: 95.9 to 96%)", "assay_type": "functional", "settings": "SGC-7901, 48 h, read-out: Activity"}, "SGC-7901 [21]": {"system": "SGC-7901", "test": "Induction of apoptosis in human SGC7901 cells assessed as early apoptotic cells at 1000 nM after 48 hrs in presence of NAC by Annexin V-FITC/propidium iodide staining based flow cytometric analysis (reference value: 0.851%)", "assay_type": "functional"}, "SGC-7901 [22]": {"system": "SGC-7901", "test": "Induction of apoptosis in human SGC7901 cells assessed as decrease in PARP level at 600 to 1200 nM after 48 hrs by Western blot analysis", "assay_type": "functional, cell-based"}, "SGC-7901 [23]": {"system": "SGC-7901", "test": "Induction of apoptosis in human SGC7901 cells assessed as viable cells at 1000 nM after 48 hrs by Annexin V-FITC/propidium iodide staining based flow cytometric analysis (reference value: 95.9 to 96%)", "assay_type": "functional", "settings": "SGC-7901, 48 h, read-out: Activity"}, "SGC-7901 [24]": {"system": "SGC-7901", "test": "Induction of apoptosis in human SGC7901 cells assessed as decrease in cyclin D1 level after 48 hrs by Western blot analysis", "assay_type": "functional, cell-based"}, "U-87 MG": {"system": "U-87 MG", "test": "Antiproliferative activity against human U87 cells after 48 hrs by MTT assay", "assay_type": "functional, cell-based, U-87MG ATCC"}, "SGC-7901 [25]": {"system": "SGC-7901", "test": "Induction of apoptosis in human SGC7901 cells assessed as viable cells at 1200 nM after 48 hrs in presence of NAC by Annexin V-FITC/propidium iodide staining based flow cytometric analysis (reference value: 96%)", "assay_type": "functional", "settings": "SGC-7901, 48 h, read-out: Activity"}, "SGC-7901 [26]": {"system": "SGC-7901", "test": "Cell cycle arrest in human SGC7901 cells assessed as accumulation at G1 phase after 48 hrs by propidium iodide staining based flow cytometric analysis", "assay_type": "functional"}, "SGC-7901 [27]": {"system": "SGC-7901", "test": "Induction of apoptosis in human SGC7901 cells assessed as necrotic cells at 1200 nM after 48 hrs by Annexin V-FITC/propidium iodide staining based flow cytometric analysis (reference value: 0.052 to 0.304%)", "assay_type": "functional"}, "SGC-7901 [28]": {"system": "SGC-7901", "test": "Induction of apoptosis in human SGC7901 cells assessed as necrotic cells at 1000 nM after 48 hrs by Annexin V-FITC/propidium iodide staining based flow cytometric analysis (reference value: 0.052 to 0.304%)", "assay_type": "functional"}, "SGC-7901 [29]": {"system": "SGC-7901", "test": "Induction of apoptosis in human SGC7901 cells assessed as early apoptotic cells at 1000 nM after 48 hrs by Annexin V-FITC/propidium iodide staining based flow cytometric analysis (reference value: 0.851 to 2.30%)", "assay_type": "functional"}, "SGC-7901 [30]": {"system": "SGC-7901", "test": "Antiproliferative activity against human SGC7901 cells after 48 hrs by MTT assay", "assay_type": "functional, cell-based", "settings": "SGC-7901, 48 h"}, "SGC-7901 [31]": {"system": "SGC-7901", "test": "Induction of apoptosis in human SGC7901 cells assessed as late apoptotic cells at 600 nM after 48 hrs by Annexin V-FITC/propidium iodide staining based flow cytometric analysis (reference value: 1.73%)", "assay_type": "functional"}}, "note": "Activity calls are given as the source filed them. The rule behind the calls is not given here.", "data": [{"smiles": "COc1cc(OC)c2c(=O)c(OCCCOc3ccccc3/C=C/C(=O)/C=C/c3ccccn3)c(-c3cc(OC)c(OC)c(OC)c3)oc2c1", "values": [{"measurement": "inhibition", "setting": "[1]", "result": "Active"}, {"measurement": "Activity", "setting": "SGC-7901 [2]", "result": 36.26, "unit": "%"}, {"measurement": "viability at 0.8 µM", "setting": "SGC-7901 [3]", "result": 66.8, "unit": "%"}, {"measurement": "Activity", "setting": "SGC-7901 [4]", "result": 2.32, "unit": "%"}, {"measurement": "Activity", "setting": "SGC-7901 [5]", "result": 51.29, "unit": "%"}, {"measurement": "Activity", "setting": "SGC-7901 [6]", "result": 97.5, "unit": "%"}, {"measurement": "Activity", "setting": "SGC-7901 [7]", "result": 4.46, "unit": "%"}, {"measurement": "Activity", "setting": "SGC-7901 [8]", "result": 75.7, "unit": "%"}, {"measurement": "viability at 0.6 µM", "setting": "SGC-7901 [9]", "result": 87.7, "unit": "%"}, {"measurement": "Activity", "setting": "SGC-7901 [10]", "result": 5.79, "unit": "%"}, {"measurement": "Activity", "setting": "SGC-7901 [11]", "result": "7.92 - 24.2%"}, {"measurement": "Activity", "setting": "SGC-7901 [12]", "result": "Dose-dependent effect"}, {"measurement": "Activity", "setting": "SGC-7901 [13]", "result": "35.4 - 40.2%"}, {"measurement": "Activity", "setting": "SGC-7901 [14]", "result": 24.5, "unit": "%"}, {"measurement": "Activity", "setting": "SGC-7901 [15]", "result": 2.84, "unit": "%"}, {"measurement": "Activity", "setting": "SGC-7901 [16]", "result": 0.92, "unit": "%"}, {"measurement": "Activity", "setting": "SGC-7901 [17]", "result": 35.37, "unit": "%"}, {"measurement": "Activity", "setting": "SGC-7901 [18]", "result": "Active"}, {"measurement": "Activity", "setting": "SGC-7901 [19]", "result": 0.425, "unit": "%"}, {"measurement": "viability at 1.2 µM", "setting": "SGC-7901 [20]", "result": "24.6 to 43.7", "unit": "%"}, {"measurement": "Activity", "setting": "SGC-7901 [21]", "result": 2.13, "unit": "%"}, {"measurement": "Activity", "setting": "SGC-7901 [22]", "result": "Active"}, {"measurement": "viability at 1 µM", "setting": "SGC-7901 [23]", "result": "50.1 to 59.6", "unit": "%"}, {"measurement": "Activity", "setting": "SGC-7901 [24]", "result": "Dose-dependent effect"}, {"measurement": "IC50", "setting": "U-87 MG", "result": 3930, "unit": "nM"}, {"measurement": "viability at 1.2 µM", "setting": "SGC-7901 [25]", "result": 74.1, "unit": "%"}, {"measurement": "Activity", "setting": "SGC-7901 [26]", "result": "Dose-dependent effect"}, {"measurement": "Activity", "setting": "SGC-7901 [27]", "result": "0.131 - 1.62%"}, {"measurement": "Activity", "setting": "SGC-7901 [28]", "result": "0.256 - 1.04%"}, {"measurement": "Activity", "setting": "SGC-7901 [29]", "result": "24.7 - 32.2%"}, {"measurement": "IC50", "setting": "SGC-7901 [30]", "result": 1080, "unit": "nM"}, {"measurement": "Activity", "setting": "SGC-7901 [31]", "result": 6.4, "unit": "%"}]}]}
